Experimental findings from patent publication US10314816B2, “Antimicrobial compounds, compositions and methods of use thereof” (Wisconsin Alumni Research Foundation, priority 2012, dated 2019) are described below.

The test system of one series is S. aureus FRI 100. Nature of the series: MIC of bacterial growth, macrodilution (Table 2). It counts as cell-based. Conditions: Staphylococcus aureus, FRI100; S. aureus FRI 100, actively growing cells.
For the next series, the system named is C. crescentus CB15N. Description: Minimum biofilm inhibitory concentration (bMIC). Type of series: cell-based, Caulobacter crescentus. As for the experimental part: Determination of the minimum biofilm inhibitory concentration of growth (bMIC) and biofilm eradication concentration (MBEC). Overnight cultures of C. crescentus and S. aureus were grown and diluted 100-fold into appropriate nutrient media. Aliquots of the diluted suspension were transferred into wells of 96-well plates (150 μL/well). 2-fold serial dilutions were performed for compound-containing wells. For every experiment, three replicates for each compound concentration tested were included. After transferring aliquots of the suspension, the plates were closed with specialized lids that have protruding pins (Nunc STP System), and the plates were sealed using Parafilm®. The plates were incubated in a static incubator at 30° C. (C. crescentus) or 37° C. (S. aureus) for 24 hours. After the cells had formed biofilms on the surface of the pins, the pins were rinsed by dipping them in M2 (C. crescentus) or PBS (S. aureus) solutions. To rinse the pins, clean, sterile 96-well plates were used (aliquots of 200 μL/well); each rinse lasted 10 sec. After washing away planktonic cells loosely bound to biofilms, the pins were inserted into a 96-well plate that was pre-aliquoted with nutrient media containing antibiotics (2-fold dilutions, a final volume of 150 μL/well). The plates were sealed with Parafilm®, and incubated for 17 hours, and the bMIC was measured at the end of the incubation by visual inspection. […] The plates were sealed with Parafilm®, incubated for 24 hours, and the MBEC was measured at the end of the incubation by visual inspection.
Membrane-active compounds are also efficient at eradicating biofilm-associated cells (Table 2). […] To determine the efficacy of antibiotics against biofilms, the minimum biofilm inhibitory concentration (bMIC) and the minimum biofilm eradication concentration (MBEC) were measured. […] After 24 hours of exposure to compounds, the lowest concentration of antibiotic that inhibited planktonic cell growth in the wells (bMIC) was determined.

The subject of another series is GFP-MinD. Description: Measurement of compound effects on MinD localization. It counts as cell-based, Bacillus subtilis. To be noted: B. subtilis cells, treated 20 minutes, compared to DMSO. Here is the method:
Measurement of compound effects on MinD: B. subtilis DS4294 (amyE::Pxyl-GFP-minD cat) cells were grown to exponential phase (λ=600 nm, 0.4-0.7) in LB with incubation at 30° C. and 200 rpm shaking. Cells were induced for GFP-MinD production by adding xylose to the media to a final concentration of 0.1% (w/v) followed by incubating for 75 min. After induction, cells were treated with compounds for 20 minutes before imaging. Other details for imaging conditions and data analysis were identical to those described for MipZ-YFP, except for the definition of poles, and a set of criteria used for defining ‘wildtype’ protein localization. ‘Wildtype’ was defined as 1) GFP-MinD was bipolar, meaning there were two peaks, and both peaks were at the poles (1-20% and 80-100% of the normalized cell length); 2) GFP-MinD was at the mid-cell in addition to the bipolar localization, meaning there were three peaks with two of them at the poles and one at mid-cell; and 3) GFP-MinD was at an quaternary position (20-40% and 60-80% of the normalized cell length) in addition to the bipolar and mid-cell localization (the total number of peaks was 4 if there is one quaternary peak, and the total was 5 if there are two quaternary peaks). Because B. subtilis cells can initiate division prior to finishing an earlier division and the completion of septation, these normal cells have peaks at quaternary positions. […]

Series [1] deals with rabbit red blood cells (RBC). Description: Rabbit red blood cell (RBC) hemolysis assay. It counts as cell-based. As for the experimental part:
Rabbit red blood cell (RBC) hemolysis assay. Rabbit RBCs from Lampire Biological Laboratories were used. Prior to preparing the RBCs, compound-containing PBS solutions were serially diluted into a 96-well plate (a final volume of 100 μL/well). The RBC lysis solution (Epicentre Biotechnology) was included as a positive control for hemolysis. For each assay, 1 mL of the RBC suspension was removed from the stock bottle and centrifuged for 2 minutes at 2000 rpm. The pelleted cells were resuspended in sterile PBS solution and centrifuged again. The cells were resuspended in PBS and diluted 5-fold into the same solution. 100 μL aliquots of RBCs were added into wells of a 96-well plate that contained an equal volume of a solution of compound in PBS. The plates were incubated for varying amounts of time depending on the microbial assay conditions to be emulated. For MIC-like conditions, plates were incubated for at least 17 hours at 30° C. or 37° C. For MSC-like conditions, the incubation time was either 2 hours or 6 hours at 30° C. or 37° C. During the incubation, un-lysed RBCs settled at the bottom of the wells. At the end of the incubation, 90 μL of the supernatant was transferred into the wells of a fresh 96-well plate, and the absorbance of the heme at 2=405 nm was measured.
To test the toxicity of DCAP against mammalian membranes, the hemolysis of rabbit red blood cells (RBC) was measured. These experiments were performed using conditions that closely mimicked the MIC and MSC assays. RBCs were treated with CCCP and DCAP at their MICs for the time periods used (17 hours) to determine the MIC of C. crescentus and S. aureus. After incubation, the absorbance of heme released from lysed RBCs was measured.
The MSC assay conditions were also reproduced to measure toxicity against RBCs. First, the minimum time required to obtain the MSC for DCAP treatment of C. crescentus (2 hours) and S. aureus (6 hours; data not shown) was determined.

The mark [2] stands for this setting: compounds at their MICs for C. crescentus and S. aureus, 17 hours.

Procedure for S. aureus FRI 100: Bacterial strains and growth conditions. Luria-Bertani (LB) media (10 g/L tryptone, 10 g/L NaCl, 5 g/L yeast extract, pH 7.2) was used to grow B. subtilis 168, S. aureus FRI100, and P. aeruginosa K1115 strains. […] All cultures were grown at 37° C., except for C. crescentus (30° C.). All cultures were grown while shaking at 200 rpm.
Determination of the minimum inhibitory concentration (MIC) of bacterial growth. The MIC of various organisms in liquid media was determined using the macrodilution method according to the NCCLS guidelines. For the starting inoculum, cultures were diluted to contain approximately 5×10^5 cells/mL in growth media. To create a two-fold dilution series for the macrodilution technique, each compound was added to the first culture tube (4 mL total volume) at the highest concentration. 2 mL of this culture was diluted into an equal volume of inoculated media (a two-fold dilution). The final volume for each culture was 2 mL.

Consider `OCC(CO)(CO)NCC(O)Cn1c2ccc(Cl)cc2c2cc(Cl)ccc21` (centres unmarked) [DCAP, 2-((3-(3,6-dichloro-9H-carbazol-9-yl)-2-hydroxypropyl)amino)-2-(hydroxymethyl)propane-1,3-diol], for which, in the series with S. aureus FRI 100, the MIC stood at 50 µM. This molecule also displayed a bMIC with C. crescentus CB15N of 20 µM. Also, the GFP-MinD localization result with GFP-MinD was “GFP-MinD mislocalized”. In addition, the “Hemolysis of rabbit RBCs” value in series [1] (MSC assay conditions, 2 hours (C. crescentus) and 6 hours (S. aureus)) is on record as “no significant toxicity”; in series [1] (setting [2]), “did not significantly disrupt RBC membranes”; in series [1] (higher concentrations of DCAP (i.e., 50 μM), 17 hours), “moderately toxic to RBCs”.
As to `N#CC(C#N)=NNc1cccc(Cl)c1` [CCCP, carbonyl cyanide m-chlorophenyl hydrazone], the MIC with S. aureus FRI 100 amounted to 1.25 µM. In the series with C. crescentus CB15N, this molecule returned a bMIC of 5 µM. Also, in the series on GFP-MinD, the GFP-MinD localization entry is given as “more diffuse fluorescence throughout the cell but had little effect on the location of the signal”. Further, the “Hemolysis of rabbit RBCs” value was “did not significantly disrupt RBC membranes” in series [1] (setting [2]) and “toxic to RBCs at a high concentration” in series [1] (high concentration, MSC conditions for S. aureus (FIG. 8C)).
